Measurements as given in the supplement of paper PMC10307832.

Legend:
Test in all cases: relative viability (nuclei count vs DMSO), 5 days (fraction); higher = more cells survive
[1] = test system: COR-L23
In short: (§1)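 Medians of duplicate plates are given as relative viability. That measure is the nuclei count in treated wells divided by the count in vehicle wells. Counts were taken on 4× images of lung cancer cell lines in 1536-well plates, 5 days after pin-tool dosing the day after seeding with one drug alone or a fixed anchor-drug dose plus five library-drug doses (not always all listed) in √10 steps.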

[2] = test system: ChaGo-K-1
In short: as §1

[3] = test system: EMC-BAC-2
In short: as §1

[4] = test system: EPLC-272H
In short: as §1

[5] = test system: H3255
In short: as §1

[6] = test system: HCC-44
In short: as §1

[7] = test system: HCC-827
In short: as §1

[8] = test system: LCLC-103H
In short: as §1

[9] = test system: LU99A
In short: as §1

[10] = test system: NCI-H1395
In short: as §1

[11] = test system: NCI-H1563
In short: as §1

[12] = test system: NCI-H1651
In short: as §1

[13] = test system: NCI-H1793
In short: as §1

[14] = test system: NCI-H1944
In short: as §1

[15] = test system: NCI-H2023
In short: as §1

[16] = test system: NCI-H2085
In short: as §1

[17] = test system: NCI-H2087
In short: as §1

[18] = test system: NCI-H2405
In short: as §1

[19] = test system: NCI-H520
In short: as §1

[20] = test system: NCI-H650
In short: as §1

[21] = test system: NCI-H838
In short: as §1

[22] = test system: SK-MES-1
In short: as §1

With O=c1cc(-c2cccc3c2Sc2ccccc2S3)oc(N2CCOCC2)c1 + N=C(N)NC(=N)NCCc1ccccc1 [Phenformin] (partner 250 µM) the relative viability ([1]; first compound 0.08 µM) was 0.478, the relative viability ([1]; first compound 0.253 µM) was 0.484 and the relative viability ([1]; first compound 0.8 µM) was 0.511. It also gave a relative viability ([1]; first compound 2.53 µM) of 0.459, a relative viability ([1]; first compound 8 µM) of 0.545 and a relative viability ([2]; first compound 0.08 µM) of 0.463. The relative viability ([2]; first compound 0.253 µM) was 0.53, the relative viability ([2]; first compound 0.8 µM) was 0.56 and the relative viability ([2]; first compound 2.53 µM) was 0.344. It also gave a relative viability ([2]; first compound 8 µM) of 0.509, a relative viability ([3]; first compound 0.08 µM) of 0.502 and a relative viability ([3]; first compound 0.253 µM) of 0.54. For the same molecule, the relative viability ([3]; first compound 0.8 µM) was 0.563, the relative viability ([3]; first compound 2.53 µM) was 0.489 and the relative viability ([3]; first compound 8 µM) was 0.519. The relative viability ([4]; first compound 0.08 µM) was 0.247, the relative viability ([4]; first compound 0.253 µM) was 0.333 and the relative viability ([4]; first compound 0.8 µM) was 0.318. It also gave a relative viability ([4]; first compound 2.53 µM) of 0.254, a relative viability ([4]; first compound 8 µM) of 0.255 and a relative viability ([5]; first compound 0.08 µM) of 0.323. The relative viability ([5]; first compound 0.253 µM) was 0.393, the relative viability ([5]; first compound 0.8 µM) was 0.339 and the relative viability ([5]; first compound 2.53 µM) was 0.338. It also gave a relative viability ([5]; first compound 8 µM) of 0.39, a relative viability ([6]; first compound 0.08 µM) of 0.173 and a relative viability ([6]; first compound 0.253 µM) of 0.172. For the same molecule, the relative viability ([6]; first compound 0.8 µM) was 0.144, the relative viability ([6]; first compound 2.53 µM) was 0.182 and the relative viability ([6]; first compound 8 µM) was 0.217. For the same molecule, the relative viability ([7]; first compound 0.08 µM) was 0.396, the relative viability ([7]; first compound 0.253 µM) was 0.452 and the relative viability ([7]; first compound 0.8 µM) was 0.402. The relative viability ([7]; first compound 2.53 µM) was 0.306, the relative viability ([7]; first compound 8 µM) was 0.408 and the relative viability ([8]; first compound 0.08 µM) was 0.31. The relative viability ([8]; first compound 0.253 µM) was 0.374, the relative viability ([8]; first compound 0.8 µM) was 0.361 and the relative viability ([8]; first compound 2.53 µM) was 0.336. For the same molecule, the relative viability ([8]; first compound 8 µM) was 0.296, the relative viability ([9]; first compound 0.08 µM) was 0.872 and the relative viability ([9]; first compound 0.253 µM) was 1.08. For the same molecule, the relative viability ([9]; first compound 0.8 µM) was 1.03, the relative viability ([9]; first compound 2.53 µM) was 0.896 and the relative viability ([9]; first compound 8 µM) was 1. For the same molecule, the relative viability ([10]; first compound 0.08 µM) was 0.462, the relative viability ([10]; first compound 0.253 µM) was 0.393 and the relative viability ([10]; first compound 0.8 µM) was 0.472. The relative viability ([10]; first compound 2.53 µM) was 0.389, the relative viability ([10]; first compound 8 µM) was 0.433 and the relative viability ([11]; first compound 0.08 µM) was 0.626. The relative viability ([11]; first compound 0.253 µM) was 0.689, the relative viability ([11]; first compound 0.8 µM) was 0.617 and the relative viability ([11]; first compound 2.53 µM) was 0.633. The relative viability ([11]; first compound 8 µM) was 0.611, the relative viability ([12]; first compound 0.08 µM) was 0.342 and the relative viability ([12]; first compound 0.253 µM) was 0.526. The relative viability ([12]; first compound 0.8 µM) was 0.423, the relative viability ([12]; first compound 2.53 µM) was 0.362 and the relative viability ([12]; first compound 8 µM) was 0.299. The relative viability ([13]; first compound 0.08 µM) was 0.344, the relative viability ([13]; first compound 0.253 µM) was 0.398 and the relative viability ([13]; first compound 0.8 µM) was 0.347. It also gave a relative viability ([13]; first compound 2.53 µM) of 0.306, a relative viability ([13]; first compound 8 µM) of 0.279 and a relative viability ([14]; first compound 0.08 µM) of 0.192. The relative viability ([14]; first compound 0.253 µM) was 0.21, the relative viability ([14]; first compound 0.8 µM) was 0.186 and the relative viability ([14]; first compound 2.53 µM) was 0.168. It also gave a relative viability ([14]; first compound 8 µM) of 0.22, a relative viability ([15]; first compound 0.08 µM) of 0.401 and a relative viability ([15]; first compound 0.253 µM) of 0.484. For the same molecule, the relative viability ([15]; first compound 0.8 µM) was 0.476, the relative viability ([15]; first compound 2.53 µM) was 0.362 and the relative viability ([15]; first compound 8 µM) was 0.44. The relative viability ([16]; first compound 0.08 µM) was 0.654, the relative viability ([16]; first compound 0.253 µM) was 0.702 and the relative viability ([16]; first compound 0.8 µM) was 0.739. For the same molecule, the relative viability ([16]; first compound 2.53 µM) was 0.678, the relative viability ([16]; first compound 8 µM) was 0.576 and the relative viability ([17]; first compound 0.08 µM) was 0.47. For the same molecule, the relative viability ([17]; first compound 0.253 µM) was 0.623, the relative viability ([17]; first compound 0.8 µM) was 0.527 and the relative viability ([17]; first compound 2.53 µM) was 0.398. For the same molecule, the relative viability ([17]; first compound 8 µM) was 0.462, the relative viability ([18]; first compound 0.08 µM) was 0.354 and the relative viability ([18]; first compound 0.253 µM) was 0.372. It also gave a relative viability ([18]; first compound 0.8 µM) of 0.45, a relative viability ([18]; first compound 2.53 µM) of 0.385 and a relative viability ([18]; first compound 8 µM) of 0.415. The relative viability ([19]; first compound 0.08 µM) was 0.505, the relative viability ([19]; first compound 0.253 µM) was 0.507 and the relative viability ([19]; first compound 0.8 µM) was 0.479. It also gave a relative viability ([19]; first compound 2.53 µM) of 0.372, a relative viability ([19]; first compound 8 µM) of 0.619 and a relative viability ([20]; first compound 0.08 µM) of 0.386. It also gave a relative viability ([20]; first compound 0.253 µM) of 0.437, a relative viability ([20]; first compound 0.8 µM) of 0.461 and a relative viability ([20]; first compound 8 µM) of 0.452. For the same molecule, the relative viability ([21]; first compound 0.08 µM) was 0.517, the relative viability ([21]; first compound 0.253 µM) was 0.726 and the relative viability ([21]; first compound 0.8 µM) was 0.488. The relative viability ([21]; first compound 2.53 µM) was 0.531, the relative viability ([21]; first compound 8 µM) was 0.503 and the relative viability ([22]; first compound 0.08 µM) was 0.681. The relative viability ([22]; first compound 0.253 µM) was 0.762, the relative viability ([22]; first compound 0.8 µM) was 0.649 and the relative viability ([22]; first compound 2.53 µM) was 0.642. It also gave a relative viability ([22]; first compound 8 µM) of 0.666.
